Earlier results, collected in patent US20060088904A1, “Methods for the synthesis of astaxanthin” (priority 2004, published 2006).

Experiments:
[1] = tested on: transformed cells as well as normal prostatic epithelium; conditions: cultured human cells; alone and/or in combination with other antioxidants (e.g. vitamin E)
[2] = tested on: cigarette-smoke induced lung pathology; conditions: ferret
[3] = tested on: peroxyl radical chain reaction in liposome systems; conditions: appropriate dose

Structure (SMILES) | growth inhibition [1] | protection against cigarette-smoke induced lung pathology [2] | suppression of peroxyl radical chain reaction [3]
CC(C)=CCC/C(C)=C/C=C/C(C)=C/C=C/C(C)=C/C=C/C=C(C)/C=C/C=C(C)/C=C/C=C(\C)CCC=C(C)C [lycopene] | growth inhibitory | protective | –
CC1=C(/C=C/C(C)=C/C=C/C(C)=C/C=C/C=C(C)/C=C/C=C(C)/C=C/C2=C(C)C(=O)C(O)CC2(C)C)C(C)(C)CC(O)C1=O (stereo not drawn) [astaxanthin] | – | – | completely suppress
